The values below come from publication PMC13210772, “Dual FLT3/MAPK14 Proteolysis-Targeting Chimera (PROTAC) Induces Potent Acute Myeloid Leukemia Cell Death” (Pharmaceuticals, 2026).

Molecules are shown by their SMILES.

The subject of one assay is MOLM-13. The arrangement: method as in PMID 30427680, PMID 34959180, PMID 34694800, PMID 36332882, PMID 38655686. The following applies: reported FLT3 PROTACs, Figure 1; cited from earlier work.
The next assay has as its target T1, ULK1 (Homo sapiens, UniProt O75385).
T1 construct: Full-length kinase ORF (Promega, Madison, WI, USA) cloned in frame with a NanoLuc-vector; host or cells: HEK293T
Put plainly: NanoBRET CELLinib128. The assay is classed as binding. As to conditions: 1 µM; 100% no effect, 0% complete tracer displacement. The method in brief: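 Cellular competition format: NLuc-tagged full-length kinases in HEK293T, single 1 μM dose against tracer for 2 h at 37 °C. BRET ratio from 450 nm and 610 nm emission, scaled between tracer-only and background controls; averages with SD reported.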

Assay [1] deals with T2, MAPK14 (Homo sapiens, UniProt Q16539). Briefly: Phosphorylation of MAPK14, immunoblot in MV4-11 cells. The assay is classed as cell-based. On the set-up: endogenous in cells; host or cells: K562, RS4-11, MV4-11, MOLM-13 (A17); MV4-11 (A20).
A further assay concerns the target T3, FLT3-ITD (Homo sapiens, UniProt P36888, INS600HVDFREYEYD).
T3 sequence (P36888 with tags, fused parts or gaps INS600HVDFREYEYD): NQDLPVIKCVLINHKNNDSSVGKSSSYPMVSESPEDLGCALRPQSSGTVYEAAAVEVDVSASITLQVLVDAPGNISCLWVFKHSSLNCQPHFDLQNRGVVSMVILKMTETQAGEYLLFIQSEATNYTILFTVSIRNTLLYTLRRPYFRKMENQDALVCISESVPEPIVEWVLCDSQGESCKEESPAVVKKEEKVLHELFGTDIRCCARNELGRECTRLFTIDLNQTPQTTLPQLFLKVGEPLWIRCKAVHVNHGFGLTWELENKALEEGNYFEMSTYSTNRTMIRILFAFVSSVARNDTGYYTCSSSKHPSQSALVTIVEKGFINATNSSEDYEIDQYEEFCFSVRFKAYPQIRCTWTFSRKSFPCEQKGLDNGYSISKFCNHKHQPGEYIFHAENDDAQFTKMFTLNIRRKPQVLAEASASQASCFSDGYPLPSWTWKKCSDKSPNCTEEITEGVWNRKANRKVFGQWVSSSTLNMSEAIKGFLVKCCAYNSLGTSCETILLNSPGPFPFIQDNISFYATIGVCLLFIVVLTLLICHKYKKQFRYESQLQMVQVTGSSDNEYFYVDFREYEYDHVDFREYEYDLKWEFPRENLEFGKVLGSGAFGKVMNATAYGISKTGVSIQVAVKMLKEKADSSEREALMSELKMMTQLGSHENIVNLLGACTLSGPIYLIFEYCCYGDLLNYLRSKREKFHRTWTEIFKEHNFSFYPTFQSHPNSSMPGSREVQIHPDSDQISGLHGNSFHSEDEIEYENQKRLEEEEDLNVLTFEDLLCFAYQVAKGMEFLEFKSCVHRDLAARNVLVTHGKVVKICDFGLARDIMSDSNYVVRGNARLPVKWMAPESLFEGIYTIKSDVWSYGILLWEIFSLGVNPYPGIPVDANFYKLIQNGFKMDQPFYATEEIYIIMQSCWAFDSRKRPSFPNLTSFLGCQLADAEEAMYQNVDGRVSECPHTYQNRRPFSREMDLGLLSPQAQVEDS
Put plainly: Phosphorylation of FLT3-ITD, immunoblot in MV4-11 cells. The assay is classed as cell-based. The arrangement: We treated MV4-11 cells with the synthesized degraders of FLT3; endogenous in cells; host or cells: MV4-11. From the text: We aimed to delineate if the FLT3 inhibitor part of MA191 acts as a MAPK14 inhibitor in MV4-11 cells. We used the phosphorylation of FLT3-ITD and the phosphorylation of MAPK14 as markers for their activation. […] This finding is consistent with the detection of MAPK14 in the kinase selectivity profiling approach (Figure 3; MAPK14 is termed p38α therein).
Figure 7 Targeting MAPK14 augments anti-leukemic effects of an inhibition of FLT3-ITD. (a) The graphs show the mRNA levels of MAPK14 in leukemia cells and normal blood cells. […] All immunoblots show data from at least two independent repetitions. (c) Model for how inhibition of various signaling pathways affects AML cells (red, cytoplasm, blue, nucleus).

The target in assay [2] is T2, MAPK14. Put plainly: MAPK14 degradation, immunoblot in leukemia cells. The assay is classed as cell-based. On the set-up: endogenous in cells; host or cells: K562, RS4-11, MV4-11, MOLM-13 (A17); MV4-11 (A20). As to conditions: K562, RS4-11, MV4-11 and MOLM-13 cells; 50 nM MA191, 24 h.

T2 sequence (Q16539 2-360 limits assumed): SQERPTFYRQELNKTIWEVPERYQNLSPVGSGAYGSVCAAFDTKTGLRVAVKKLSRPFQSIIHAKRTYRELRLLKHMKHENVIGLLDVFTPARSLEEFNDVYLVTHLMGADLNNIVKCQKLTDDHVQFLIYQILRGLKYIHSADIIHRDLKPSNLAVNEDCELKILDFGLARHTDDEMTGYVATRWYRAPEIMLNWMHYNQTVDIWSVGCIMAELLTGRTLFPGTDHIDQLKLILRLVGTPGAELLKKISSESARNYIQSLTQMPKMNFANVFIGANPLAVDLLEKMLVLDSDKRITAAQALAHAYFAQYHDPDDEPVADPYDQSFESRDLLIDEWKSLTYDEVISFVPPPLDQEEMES
T1 sequence (O75385 whole entry): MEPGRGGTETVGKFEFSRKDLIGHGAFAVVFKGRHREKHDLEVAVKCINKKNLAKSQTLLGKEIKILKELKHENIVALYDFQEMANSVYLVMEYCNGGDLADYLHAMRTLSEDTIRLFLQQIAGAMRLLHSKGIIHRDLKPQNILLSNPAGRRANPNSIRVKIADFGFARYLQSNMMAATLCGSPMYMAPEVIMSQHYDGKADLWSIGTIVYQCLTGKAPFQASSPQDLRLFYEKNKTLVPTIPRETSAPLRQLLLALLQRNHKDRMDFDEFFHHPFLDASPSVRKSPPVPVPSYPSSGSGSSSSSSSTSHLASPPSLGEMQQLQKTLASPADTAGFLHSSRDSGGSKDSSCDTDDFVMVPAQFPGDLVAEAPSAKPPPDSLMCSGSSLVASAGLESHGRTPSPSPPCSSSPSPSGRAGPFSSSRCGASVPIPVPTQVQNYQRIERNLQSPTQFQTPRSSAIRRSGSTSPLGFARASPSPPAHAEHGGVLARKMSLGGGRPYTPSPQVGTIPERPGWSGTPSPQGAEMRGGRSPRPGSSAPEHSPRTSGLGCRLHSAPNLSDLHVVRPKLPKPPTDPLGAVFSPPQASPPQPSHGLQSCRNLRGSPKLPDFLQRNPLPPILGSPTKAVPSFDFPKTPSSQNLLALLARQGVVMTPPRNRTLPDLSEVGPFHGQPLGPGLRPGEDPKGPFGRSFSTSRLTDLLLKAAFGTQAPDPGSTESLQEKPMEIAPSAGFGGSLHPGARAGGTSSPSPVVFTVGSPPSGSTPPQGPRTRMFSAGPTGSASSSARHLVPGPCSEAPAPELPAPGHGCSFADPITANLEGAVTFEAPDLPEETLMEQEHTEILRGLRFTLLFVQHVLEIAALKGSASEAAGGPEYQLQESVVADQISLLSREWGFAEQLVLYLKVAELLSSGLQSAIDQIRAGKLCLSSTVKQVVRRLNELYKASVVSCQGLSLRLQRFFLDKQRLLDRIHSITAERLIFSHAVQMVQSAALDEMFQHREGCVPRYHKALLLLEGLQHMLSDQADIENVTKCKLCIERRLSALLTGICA

Take `Cc1ncsc1-c1ccc([C@H](C)NC(=O)[C@@H]2C[C@@H](O)CN2C(=O)[C@@H](NC(=O)CCOCCOCCOCCNC(=O)c2cc(Oc3ccc(NC(=O)Nc4cc(C(C)(C)C)on4)cc3)ccn2)C(C)(C)C)cc1` [MA49, reference compound]: the IC50 with MOLM-13 was 4.8 ± 3.7 nM.
`CNC(=O)c1cc(Oc2ccc(NC(=O)Nc3cc(C(C)(C)C)on3)cc2)ccn1` [MA68, reference compound]: the Tracer bound on ULK1 is recorded as 117.4%.
Regarding `Cc1ncsc1-c1ccc([C@H](C)NC(=O)[C@@H]2C[C@@H](O)CN2C(=O)[C@@H](NC(=O)[C@H]2CC[C@H](C(=O)N3CCN(CCNC(=O)c4cc(Oc5ccc(NC(=O)Nc6cc(C(C)(C)C)on6)cc5)ccn4)CC3)CC2)C(C)(C)C)cc1` [MA191, 4-(4-(3-(5-(tert-Butyl)isoxazol-3-yl)ureido)phenoxy)-N-(2-(4-(trans-4-(((S)-1-((2S,4R)-4-hydroxy-2-(((S)-1-(4-(4-methylthiazol-5-yl)phenyl)ethyl)carbamoyl)pyrrolidin-1-yl)-3,3-dimethyl-1-oxobutan-2-yl)carbamoyl)cyclohexanecarbonyl)piperazin-1-yl)ethyl)picolinamide], on MAPK14 [1], the “phosphorylated MAPK14 (p-MAPK14)” value is listed as “loss of p-MAPK14 together with MAPK14”. The “phosphorylation of FLT3-ITD” value at FLT3-ITD is listed as “inhibited the phosphorylation of FLT3-ITD”. On MAPK14 [2], the “MAPK14 protein level, immunoblot” value is “depleted MAPK14”.
